In patent US9828375B2, “4-position substituted pyrazolopyrimidine derivative, and use thereof in drug preparation” (Guangxi Wuzhou Pharmaceuticals (Group) Co., Ltd., priority 2012, dated 2017):
Where two headings read alike, the source gives them in different places.

Tests used:
[1] = system: human leukemia cell line MV4-11; experiment: In vitro tumor cell proliferation inhibition (MTT): MV4-11; format: cell-based
Description: (§1) The purpose of the experiment was to test the inhibition activity of the compounds of the invention for in vitro human tumor cell proliferation by the methyl thiazolyl tetrazolium (MTT) colorimetry.
(§2) Main reagents: RPMI-1640, fetal bovine serum, pancreatin, etc. were purchased from Gibco BRL Company (Invitrogen Corporation, USA) and IMDM medium that was purchased from American Type Culture Collection (ATCC). Methyl thiazolyl tetrazolium (MTT) and dimethyl sulfoxide (DMSO) were products from Sigma Company (USA). Pyrazolopyrimidine derivatives were composed by the inventor. During in vitro experiment, 100% DMSO was prepared into 10 mM storage solution, the solution was stored in a refrigerator at −20° C. for future use, and was diluted to the required concentration with complete culture solution before use.
(§3) Cell line and culture: Human leukemia cell line MV4-11, Jurkat, K562, human thyrophyma cell line TT, human gastric carcinoma cell line MKN-45, human malignant melanoma cell lines A375 and A875, human pancreatic carcinoma cell line panc-1, human cervical carcinoma cell line HELA, human colorectal carcinoma cell line HCT116, etc. were purchased from American type culture collection and were preserved by this laboratory. All leukemia cell lines (except MV4-11), gastric carcinoma cell lines and thyrophyma cell lines were cultured in RPMI-1640 complete medium containing 10% fetal bovine serum, 100 U/mL penicillin and 100 μg/mL streptomycin at 37° C. in 5% CO2. The remaining cell lines were cultured in DMEM complete medium containing 10% fetal bovine serum (containing 20% MV4-11 cell), 100 U/mL penicillin and 100 µg/mL streptomycin at 37° C. in 5% CO2.
(§4) Cell suspension with cell concentration of 1-2×10^4/mL was adjusted with the complete cell medium and inoculated in a 96-well plate, with each well filled with 200 μl cell suspension that was cultured overnight. On the next day, supernatant was sucked and abandoned (supernatant was sucked upon centrifugation of suspension cells), and then cells were processed with test compounds at gradient concentrations respectively. Meanwhile, a negative control group free from drug and a solvent control group with equal volume were set, and the DMSO concentration was 0.1%. Each dose group was provided with three wells and cultured at 37° C. in 5% CO2. After 72 hours, 20 μl 5 mg/mL MTT reagent was added to each well, and cultured for another 2 to 4 hours, the supernatant was abandoned; 150 μL DMSO was added to each well again, vibrated and mixed evenly for 15 minutes; the absorbance (A) values (proportional to living cell amount) were determined with a microplate reader (λ=570 nm) and averaged. […] Experiment was repeated for 3 times at least. Experimental data were expressed with means, data statistics were tested by t, and P<0.05 means that difference has a statistical significance. The cell proliferation inhibition effects of all compounds as follows are expressed by IC50 or inhibition rate.

[2] = system: human gastric carcinoma cell line MKN-45; experiment: In vitro tumor cell proliferation inhibition (MTT): MKN-45; format: cell-based
Description: as §1, §2, §3, §4

[3] = system: human malignant melanoma cell line A375; experiment: In vitro tumor cell proliferation inhibition (MTT): A375; format: cell-based
Description: as §1, §2, §3, §4

[4] = system: human malignant melanoma cell line A875; experiment: In vitro tumor cell proliferation inhibition (MTT): A875; format: cell-based
Description: as §1, §2, §3, §4

[5] = system: human pancreatic carcinoma cell line panc-1; experiment: In vitro tumor cell proliferation inhibition (MTT): panc-1; format: cell-based
Description: as §1, §2, §3, §4

[6] = system: human leukemia cell line Jurkat; experiment: In vitro tumor cell proliferation inhibition (MTT): Jurkat; format: cell-based; conditions: 72 hours
Description: as §1, §2, §3, §4

[7] = system: human leukemia cell line K562; experiment: In vitro tumor cell proliferation inhibition (MTT): K562; format: cell-based
Description: as §1, §2, §3, §4

[8] = system: human colorectal carcinoma cell line HCT116; experiment: In vitro tumor cell proliferation inhibition (MTT): HCT116; format: cell-based
Description: as §1, §2, §3, §4

[9] = system: human thyrophyma cell line TT; experiment: In vitro tumor cell proliferation inhibition (MTT): TT; format: cell-based
Description: as §1, §2, §3, §4

[10] = system: human cervical carcinoma cell line HELA; experiment: In vitro tumor cell proliferation inhibition (MTT): HELA; format: cell-based; conditions: 72 hours
Description: as §1, §2, §3, §4

[11] = system: human acute myeloid leukemia cell line MV4-11; experiment: In vivo anti-leukemia tumor experiment, NOD-SCID mice-subcutaneous MV4-11 model, tumors more than 2000 mm^3
Description: The cell line used was human acute myeloid leukemia cell line MV4-11, with anti-leukemia drug Quizartinib (AC220) as a positive control.

[12] = Homo sapiens, HCT-116, 72 hours

Compound | IC50 ([1]; Homo sapiens, MV4-11, 72 h) | IC50 ([2]; Homo sapiens, MKN-45, 72 hours) | IC50 ([3]; Homo sapiens, A-375, 72 hours) | IC50 ([4]; Homo sapiens, A875, 72 hours) | IC50 ([5]; Homo sapiens, PANC-1, 72 hours) | IC50 ([6]; Homo sapiens, Jurkat) | IC50 ([7]; Homo sapiens, K562, 72 hours) | IC50 [8, 12] | IC50 ([9]; Homo sapiens, 72 h) | IC50 ([10]; Homo sapiens, HeLa) | also measured
O=C(Nc1ccc(C(F)(F)F)cc1)Nc1cccc(Oc2ncnc3[nH]ncc23)c1 [4a-43] | < 5000 nM | < 50 µM | < 50 µM | < 50 µM | < 50 µM | < 50 µM | < 50 µM | < 50 µM | 4.57 µM | < 50 µM | 
CC(C)(C)c1cc(NC(=O)Nc2ccc(Oc3ncnc4[nH]ncc34)cc2)n(C(=O)O)n1 [4a-58] | 0.0146 nM |  |  |  |  |  |  |  |  | < 50 µM | weight loss, rash, diarrhea and other adverse reactions during administration ([11]; NOD-SCID mice, 3 and 10 mg/kg q.d. oral): not found; in vivo tumor growth inhibition effect ([11]; daily dose of 3 mg/kg or above, oral, MV4-11 tumors more than 2000 mm^3 at start): completely inhibit tumor growth
CC(C)n1ncc2c(Oc3ccc(NC(=O)Nc4cc(C(C)(C)C)[nH]n4)cc3)ncnc21 [5a-7, 1-(5-tert-butyl-1H-pyrazol-3-yl)-3-(4-(1-isopropyl-(1H-pyrazolopyrimidine-4-yl)oxy)phenyl)urea] |  | < 50 µM | < 50 µM | < 50 µM | < 50 µM | < 50 µM |  |  | < 50 µM |  | 
CC(C)(C)c1cc(NC(=O)Nc2ccc(Oc3ncnc4[nH]ncc34)c(F)c2)n(C(=O)O)n1 [4a-59] | 0.00984 nM |  |  |  |  |  |  |  |  | < 50 µM | 
CC(C)(C)c1cc(NC(=O)Nc2ccc(Oc3ncnc4[nH]ncc34)c(Cl)c2)no1 [4a-46, 1-(4-((1H-pyrazolopyrimidine-4-yl)oxy)-3-chlorphenyl)-3-(5-tert-butylisoxazol-3-yl)urea] | 3 nM | < 50 µM | < 10 µM | < 10 µM | 1 to 3 µM | 1 to 3 µM | 3 to 10 µM | < 10 µM | 1 to 3 µM | < 50 µM | 
CN(C)CCCn1ncc2c(Oc3ccc(NC(=O)Nc4cc(C(C)(C)C)on4)cc3)ncnc21 [5a-6] | 28 nM | < 50 µM |  |  |  | < 50 µM |  |  | 4.13 µM | < 50 µM | 
Cn1nc(C(C)(C)C)cc1NC(=O)Nc1ccc(Oc2ncnc3[nH]ncc23)c(Cl)c1 [4a-32, 1-(4-((1H-pyrazolopyrimidine-4-yl)oxy)-3-chlorphenyl)-3-(3-tert-butyl-1-methylpyrazol-5-yl)urea] | 1 nM | 3 to 10 µM | 3 to 10 µM | 3 to 10 µM | 3 to 10 µM | 3 to 10 µM |  | < 50 µM |  |  | 
O=C(Nc1ccc(Cl)c(C(F)(F)F)c1)Nc1ccc(Oc2ncnc3[nH]ncc23)cc1Cl [4a-55] | 54.2 nM |  |  |  | < 50 µM | < 50 µM | < 50 µM | < 50 µM |  |  | 
O=C(Nc1cccc(Oc2ncnc3[nH]ncc23)c1)Nc1cccc(C(F)(F)F)c1 [4a-41] |  |  |  |  |  |  |  |  |  |  | IC50 ([1]; 72 hours): 7820 nM; IC50 ([2]; 72 hours): < 50 µM; IC50 ([3]; 72 hours): < 50 µM; IC50 ([4]; 72 hours): < 50 µM; IC50 ([5]; 72 hours): < 50 µM; IC50 [6]: < 50 µM; IC50 ([7]; 72 hours): < 50 µM; IC50 ([8]; 72 hours, read-out: Proliferation inhibition activity (IC50) HCT 116): < 50 µM; IC50 ([9]; 72 hours): < 50 µM; IC50 [10]: < 50 µM
